Data published in publication PMC10349806 (Nature Communications, 2023).
Several values for one entry are separate records, joined by “and”; a condition that tells them apart may be missing. Identical values can stand only once. Like-named read-outs stand apart in the source and are kept apart here.

Key:
PfCRT variant E207T = experiment: CQ uptake assay, oocytes expressing E207T; format: cell-based, Plasmodium falciparum
Experimental: (§1) Site-directed mutagenesis of PfCRT^Dd2 was performed as described using the megaprimer method with overlap extension[21],[54]. The primer pairs used are listed in Supplementary Table 6. Please note that a codon-optimized and oocyte-adapted version of PfCRT^Dd2 was used[22] (Supplementary Fig. 16). The resulting DNA fragment was cloned into the SP64T expression vector and verified by sequencing.
(§2) Oocytes were obtained as described previously. Briefly, adult (>2 years old) female X. laevis frogs (NASCO) were anesthetized in a cooled solution of ethyl 3-amino benzoate methanesulfonate (0.1%, w/v), followed by a surgical removal of parts of the ovary. The ovary lobes were carefully dissected and small pieces of oocytes were incubated in Ca^2+-free ND96 buffer (96 mM NaCl, 2 mM KCl, 1 mM MgCl2 buffered with 5 mM HEPES/NaOH, pH 7.5) supplemented with collagenase D (0.1%, w/v; Roche), BSA (0.5%, w/v), and 9 mm Na2HPO4 at 18 °C for 14-16 h while gentle shaking. After incubation, the oocytes were carefully washed several times with ND96 buffer (96 mM NaCl, 2 mM KCl, 1.8 mM CaCl2, 1 mM MgCl2 buffered with 5 mM HEPES/NaOH, pH 7.5) supplemented with 100 mg l^−1 gentamycin). Defolliculated and healthy-looking stage V-VI oocytes were manually selected for RNA microinjection. The RNA was generated as following: The codon-optimized sequences of PfCRT variants were cloned into the pSP64T expression vector. After vector linearization using the restriction endonucleases BamHI or SalI (New England Biolabs), transcription was performed using the in vitro SP6 mMessage mMachine Kit (Ambion)[34]. The obtained RNA was kept at −80 °C and diluted with nuclease-free water to a concentration of 0.6 μg μl^−1. Precision-bore glass capillary tubes (3.5-inch glass capillaries; Drummond Scientific Co.) were pulled on a vertical puller (P-87 Flaming/Brown micropipette puller, Sutter Instrument Co.), graduated, and placed on a microinjector (Nanoject II Auto-Nanoliter Injector, Drummond Scientific Co.). 50 nl of nuclease-free water alone (control oocytes) or 50 nl of 0.6 μg μl^−1 RNA were injected under stereomicroscopic control. Injected oocytes were incubated for 46–72 h at 18 °C with twice-daily buffer changes before usage in experiments.
(§3) Drug uptake assays were performed as described previously[21],[22],[24],[34]. […] The direction of radio-labeled drug transport is here from the mostly acidic extracellular solution (pH 4.5 or 6.0, as indicated) into the oocyte cytosol (pH ∼ 7.2), which corresponds to the efflux of drug from the acidic digestive vacuole (pH 5.2) into the parasite cytoplasm (pH 7.2). The topology of PfCRT in the oolemma is such that both the N- and C-terminus face the extracellular milieu[3],[22]. In the parasite, the N- and C-terminus face the lumen of the digestive vacuole. […] For determination of the amount of drug uptake for each oocyte, the reaction medium was removed and the oocytes were washed three times with 2 ml of ice-cold ND96 buffer. Each oocyte was individually transferred to a scintillation vial containing 5% sodium dodecyl sulfate (200 μl) for lysis. […] Oocytes that were injected with water instead of RNA were analyzed in parallel, representing the uptake of a drug by diffusion and/or endogenous permeation pathways. […] The specific PfCRT-mediated uptake was determined by subtracting the corresponding background value measured in water-injected oocytes from that of PfCRT-expressing oocytes. […]

PfCRT variant E207A = experiment: Drug uptake assay, oocytes expressing E207A; format: cell-based, Plasmodium falciparum; details: for Km: read-out: KM ± SEM
Experimental: as §1, §2
Drug uptake assays were performed as described previously[21],[22],[24],[34]. […] The direction of radio-labeled drug transport is here from the mostly acidic extracellular solution (pH 4.5 or 6.0, as indicated) into the oocyte cytosol (pH ∼ 7.2), which corresponds to the efflux of drug from the acidic digestive vacuole (pH 5.2) into the parasite cytoplasm (pH 7.2). The topology of PfCRT in the oolemma is such that both the N- and C-terminus face the extracellular milieu[3],[22]. In the parasite, the N- and C-terminus face the lumen of the digestive vacuole. […] For determination of the amount of drug uptake for each oocyte, the reaction medium was removed and the oocytes were washed three times with 2 ml of ice-cold ND96 buffer. Each oocyte was individually transferred to a scintillation vial containing 5% sodium dodecyl sulfate (200 μl) for lysis. […] Oocytes that were injected with water instead of RNA were analyzed in parallel, representing the uptake of a drug by diffusion and/or endogenous permeation pathways. The resulting value represents the “background“ level of drug accumulation in oocytes (in-depth discussion in[22]). The specific PfCRT-mediated uptake was determined by subtracting the corresponding background value measured in water-injected oocytes from that of PfCRT-expressing oocytes. In all cases, at least three separate experiments were performed on oocytes from different frogs (biological replicate), and for each condition in an experiment, measurements were made from 10 oocytes per treatment. For pH 5.5, 6.0, and 6.5, ND96 was buffered with 5 mM MES/Tris base.

PfCRT variant E75A = molecular target: T1, PfCRT variant E75A (Plasmodium falciparum, UniProt Q9N623, A220S/I356T/K76T/M74I/N326S/N75A/Q271E/R371I); experiment: CQ uptake assay, oocytes expressing E75A; format: cell-based
T1 sequence (Q9N623 1-424 M74I/N75A/K76T/A220S/Q271E/N326S/I356T/R371I): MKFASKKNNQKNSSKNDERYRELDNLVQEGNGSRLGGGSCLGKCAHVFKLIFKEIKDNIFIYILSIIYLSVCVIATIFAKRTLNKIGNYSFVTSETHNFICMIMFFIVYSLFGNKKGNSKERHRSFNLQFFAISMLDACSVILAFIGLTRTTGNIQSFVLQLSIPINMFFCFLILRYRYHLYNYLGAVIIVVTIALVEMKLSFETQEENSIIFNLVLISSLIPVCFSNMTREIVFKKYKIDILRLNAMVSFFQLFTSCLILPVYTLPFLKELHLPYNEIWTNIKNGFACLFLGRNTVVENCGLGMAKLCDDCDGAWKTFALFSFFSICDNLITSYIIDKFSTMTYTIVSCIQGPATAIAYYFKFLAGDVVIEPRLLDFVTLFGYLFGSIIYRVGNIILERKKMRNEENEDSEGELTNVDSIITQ
Experimental: as §1, §2, §3

[1] = pH 4.5, individual replicates, Fig 6b
[2] = pH 6.0, individual replicates, Fig 6b
[3] = ratio of activity pH 4.5 / pH 6.0
[4] = 50 µM CQ, 1 h, independent samples
[5] = pH 4.5, single replicates, Fig 1d left
[6] = pH 6.0, single replicates, Fig 1d left

CCN(CC)CCCC(C)Nc1ccnc2cc(Cl)ccc12 (stereo not shown) [CQ, chloroquine]
Activity at pH 6.0 (PfCRT variant E207T; E207T, 50 µM CQ, 1 h, mean ± SEM): 2.62 ± 0.31 pmol h-1 oocyte-1
R-value (PfCRT variant E207T; E207T, CQ transport at pH 4.5 / pH 6.0): 0.91 ± 0.05
E207T transport activity pH 4.5 (PfCRT variant E207T; [1]): 3.35 pmol oocyte-1 h-1 and 2.14 pmol oocyte-1 h-1 and 1.74 pmol oocyte-1 h-1
E207T transport activity pH 6.0 (PfCRT variant E207T; [2]): 3.37 pmol oocyte-1 h-1 and 2.31 pmol oocyte-1 h-1 and 2.17 pmol oocyte-1 h-1
E207T R-value (PfCRT variant E207T; [3]): 0.99 and 0.93 and 0.80
E207A transport activity (PfCRT variant E207A; 10 µM CQ, pH 4.5, 60 min): 0.59 pmol oocyte-1 h-1 and 0.34 pmol oocyte-1 h-1 and 0.50 pmol oocyte-1 h-1
E207A transport activity (PfCRT variant E207A; 10 µM CQ, pH 6.0, 60 min): 0.34 pmol oocyte-1 h-1 and 0.28 pmol oocyte-1 h-1 and 0.55 pmol oocyte-1 h-1 and 0.40 pmol oocyte-1 h-1
E207A transport activity pH 5.0 (PfCRT variant E207A; [4]): 1.89 pmol oocyte-1 h-1 and 1.63 pmol oocyte-1 h-1
E207A transport activity pH 5.5 (PfCRT variant E207A; [4]): 2.56 pmol oocyte-1 h-1 and 1.58 pmol oocyte-1 h-1 and 2.27 pmol oocyte-1 h-1
E207A transport activity (PfCRT variant E207A; 100 µM CQ, pH 4.5, 60 min): 4.66 pmol oocyte-1 h-1 and 5.17 pmol oocyte-1 h-1 and 4.25 pmol oocyte-1 h-1 and 5.82 pmol oocyte-1 h-1
E207A transport activity (PfCRT variant E207A; 100 µM CQ, pH 6.0, 60 min): 3.91 pmol oocyte-1 h-1 and 5.58 pmol oocyte-1 h-1 and 5.27 pmol oocyte-1 h-1 and 3.70 pmol oocyte-1 h-1 and 4.07 pmol oocyte-1 h-1 and 4.29 pmol oocyte-1 h-1
E207A transport activity (PfCRT variant E207A; 200 µM CQ, pH 4.5, 60 min): 7.55 pmol oocyte-1 h-1 and 5.35 pmol oocyte-1 h-1 and 6.95 pmol oocyte-1 h-1 and 5.93 pmol oocyte-1 h-1
E207A transport activity (PfCRT variant E207A; 200 µM CQ, pH 6.0, 60 min): 5.60 pmol oocyte-1 h-1 and 6.08 pmol oocyte-1 h-1 and 5.00 pmol oocyte-1 h-1 and 8.09 pmol oocyte-1 h-1 and 6.01 pmol oocyte-1 h-1
E207A transport activity (PfCRT variant E207A; 300 µM CQ, pH 4.5, 60 min): 7.51 pmol oocyte-1 h-1 and 7.97 pmol oocyte-1 h-1 and 7.66 pmol oocyte-1 h-1
E207A transport activity (PfCRT variant E207A; 300 µM CQ, pH 6.0, 60 min): 7.48 pmol oocyte-1 h-1 and 7.35 pmol oocyte-1 h-1 and 8.15 pmol oocyte-1 h-1 and 7.49 pmol oocyte-1 h-1 and 7.22 pmol oocyte-1 h-1
E207A transport activity (PfCRT variant E207A; 400 µM CQ, pH 4.5, 60 min): 9.19 pmol oocyte-1 h-1 and 7.30 pmol oocyte-1 h-1 and 9.06 pmol oocyte-1 h-1
E207A transport activity (PfCRT variant E207A; 400 µM CQ, pH 6.0, 60 min): 7.35 pmol oocyte-1 h-1 and 7.71 pmol oocyte-1 h-1 and 9.99 pmol oocyte-1 h-1 and 6.32 pmol oocyte-1 h-1 and 7.81 pmol oocyte-1 h-1
E207A transport activity (PfCRT variant E207A; 500 µM CQ, pH 4.5, 60 min): 6.87 pmol oocyte-1 h-1 and 8.11 pmol oocyte-1 h-1 and 8.95 pmol oocyte-1 h-1 and 9.82 pmol oocyte-1 h-1
E207A transport activity (PfCRT variant E207A; 500 µM CQ, pH 6.0, 60 min): 7.79 pmol oocyte-1 h-1 and 6.89 pmol oocyte-1 h-1 and 7.81 pmol oocyte-1 h-1 and 10.28 pmol oocyte-1 h-1 and 8.00 pmol oocyte-1 h-1
transport activity at pH 6.0 compared with PfCRT^Dd2 (PfCRT variant E207A; E207A, 50 µM CQ): 44%
Vmax ± SEM (PfCRT variant E207A; E207A, pH 4.5): 11 ± 1 pmol h^−1 oocyte ^−1
Km (PfCRT variant E207A; E207A, pH 4.5): 180 ± 30 µM
Vmax ± SEM (PfCRT variant E207A; E207A, pH 6.0): 11 ± 1 pmol h^−1 oocyte ^−1
Km (PfCRT variant E207A; E207A, pH 6.0): 150 ± 30 µM
Activity at pH 6.0 (PfCRT variant E207A; E207A, 50 µM CQ, 1 h, mean ± SEM): 2.24 ± 0.15 pmol h-1 oocyte-1
R-value (PfCRT variant E207A; E207A, CQ transport at pH 4.5 / pH 6.0): 0.9 and 0.89 ± 0.03
E207A transport activity pH 4.5 (PfCRT variant E207A; pH 4.5, individual replicates (Fig 6a)): 1.64 pmol oocyte-1 h-1 and 1.58 pmol oocyte-1 h-1 and 3.29 pmol oocyte-1 h-1 and 2.17 pmol oocyte-1 h-1 and 2.03 pmol oocyte-1 h-1 and 1.48 pmol oocyte-1 h-1 and 2.30 pmol oocyte-1 h-1 and 1.60 pmol oocyte-1 h-1
E207A transport activity pH 4.5 (PfCRT variant E207A; [1]): 1.64 pmol oocyte-1 h-1 and 1.58 pmol oocyte-1 h-1 and 3.29 pmol oocyte-1 h-1 and 2.17 pmol oocyte-1 h-1 and 2.03 pmol oocyte-1 h-1 and 1.48 pmol oocyte-1 h-1 and 2.30 pmol oocyte-1 h-1 and 1.60 pmol oocyte-1 h-1
E207A transport activity pH 4.5 (PfCRT variant E207A; [5]): 1.64 pmol oocyte-1 h-1 and 1.58 pmol oocyte-1 h-1 and 3.29 pmol oocyte-1 h-1 and 2.17 pmol oocyte-1 h-1 and 2.03 pmol oocyte-1 h-1 and 1.48 pmol oocyte-1 h-1 and 2.30 pmol oocyte-1 h-1 and 1.60 pmol oocyte-1 h-1
E207A R-value (PfCRT variant E207A; pH 4.5 vs pH 6.0, Fig 1d left): 0.81 and 1.04 and 1.03 and 0.85 and 0.93 and 0.99 and 0.74
E207A transport activity pH 6.0 (PfCRT variant E207A; pH 6.0, individual replicates (Fig 6a)): 2.02 pmol oocyte-1 h-1 and 1.94 pmol oocyte-1 h-1 and 3.16 pmol oocyte-1 h-1 and 2.11 pmol oocyte-1 h-1 and 2.38 pmol oocyte-1 h-1 and 1.75 pmol oocyte-1 h-1 and 2.47 pmol oocyte-1 h-1 and 1.62 pmol oocyte-1 h-1 and 2.39 pmol oocyte-1 h-1
E207A transport activity pH 6.0 (PfCRT variant E207A; [2]): 2.02 pmol oocyte-1 h-1 and 1.94 pmol oocyte-1 h-1 and 3.16 pmol oocyte-1 h-1 and 2.11 pmol oocyte-1 h-1 and 2.38 pmol oocyte-1 h-1 and 1.75 pmol oocyte-1 h-1 and 2.47 pmol oocyte-1 h-1 and 1.62 pmol oocyte-1 h-1 and 2.39 pmol oocyte-1 h-1
E207A transport activity pH 6.0 (PfCRT variant E207A; [6]): 2.02 pmol oocyte-1 h-1 and 1.94 pmol oocyte-1 h-1 and 3.16 pmol oocyte-1 h-1 and 2.11 pmol oocyte-1 h-1 and 2.38 pmol oocyte-1 h-1 and 1.75 pmol oocyte-1 h-1 and 2.47 pmol oocyte-1 h-1 and 1.62 pmol oocyte-1 h-1 and 2.39 pmol oocyte-1 h-1
E207A R-value (PfCRT variant E207A; [3]): 0.81 and 1.04 and 1.03 and 0.85 and 0.93 and 0.99 and 0.74
E207A R-value (PfCRT variant E207A; transport activity pH 4.5 relative to pH 6.0 (Fig 6a)): 0.81 and 1.04 and 1.03 and 0.85 and 0.93 and 0.99 and 0.74
Activity at pH 4.5 (PfCRT variant E75A; E75A, 50 µM CQ, 1 h, mean ± SEM): 0.89 ± 0.11 pmol h-1 oocyte-1
R-value (PfCRT variant E75A; E75A, CQ transport at pH 4.5 / pH 6.0): 0.51 ± 0.05
E75A transport activity pH 4.5 (PfCRT variant E75A; [5]): 0.71 pmol oocyte-1 h-1 and 1.15 pmol oocyte-1 h-1 and 0.80 pmol oocyte-1 h-1
E75A R-value (PfCRT variant E75A; pH 4.5 vs pH 6.0, Fig 1d left): 0.40 and 0.62 and 0.50
E75A transport activity pH 6.0 (PfCRT variant E75A; [6]): 1.76 pmol oocyte-1 h-1 and 1.84 pmol oocyte-1 h-1 and 1.60 pmol oocyte-1 h-1
